Results taken from ChEMBL document CHEMBL1201862, “PubChem BioAssay data set” (2004).
Values belong to the compound of their own block, whether it stands above or below them. Calls of active or inactive are those of the source.

How the values were obtained:
[1] = C. albicans growth with fluconazole, confirmation, fluorescence, retest (AID 2467); assay type: functional, cell-based
[2] = NIH-3T3 fibroblast cytotoxicity, dose response, cytotoxicity control, cell-based, fluorescence, Alamar Blue, secondary assay (AID 2327); assay type: functional;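 also: NIH-3T3 mouse fibroblasts cultured with fluconazole at 8 µg/mL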
[3] = biological target: Induced myeloid leukemia cell differentiation protein Mcl-1 (Homo sapiens, UniProt Q07820); assay type: functional
Induced myeloid leukemia cell differentiation protein Mcl-1, sequence (Q07820 whole entry): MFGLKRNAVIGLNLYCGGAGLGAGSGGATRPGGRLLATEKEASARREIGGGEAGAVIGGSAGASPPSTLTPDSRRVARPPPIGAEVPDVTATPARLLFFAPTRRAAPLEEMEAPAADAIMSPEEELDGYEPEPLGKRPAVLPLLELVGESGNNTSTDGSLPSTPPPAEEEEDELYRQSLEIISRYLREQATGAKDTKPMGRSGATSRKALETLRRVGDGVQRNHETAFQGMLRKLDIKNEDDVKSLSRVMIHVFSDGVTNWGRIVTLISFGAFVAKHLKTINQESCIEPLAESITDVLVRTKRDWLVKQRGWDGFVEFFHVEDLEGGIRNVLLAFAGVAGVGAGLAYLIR

[4] = HEp-2 cell cytotoxicity, dose response, cytotoxicity control for RSV inhibitor project, HTS (AID 2410); assay type: functional; settings: human respiratory syncytial virus
[5] = inhibitors of intracellular T. cruzi replication, confirmation, NIH3T3 host cells, beta-gal luminescence (AID 2044); assay type: functional, cell-based;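 also: intracellular parasites grown in NIH/3T3 mouse fibroblasts as host cells; luminescent beta-galactosidase reporter signal from transgenic T. cruzi replicating inside host cells; inhibitors lower the luminescence signal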
[6] = cytotoxicity toward NIH3T3 fibroblasts, dose response, counter-screen, cell-based, ATP luminescence, mouse fibroblasts (AID 2010); assay type: functional;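 also: cells exposed to compound for about 90 hours before reading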
[7] = growth suppression of beta-catenin-knockout colon cells, dose response, cell-based, HCT116, human colon tumor (AID 1045); assay type: functional;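 also: HCT116 colon tumor cells with beta catenin knocked out; cells exposed to compound for 60 hours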
[8] = growth suppression of PTEN-null colon cells, dose response, cell-based, HCT116 PTEN knockout (AID 1047); assay type: functional;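 also: HCT116 colon tumor cells with PTEN knocked out; cells exposed to compound for 60 hours before readout; potency for loss of cell viability measured by luminescence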
[9] = Shn3 3'UTR reporter inhibitors, dose response, cell-based, Clone20 osteoblasts, firefly luciferase, cherry-picked (AID 624132); assay type: functional;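 also: firefly luciferase luminescence from reporter carrying the Shn3 3'UTR in osteoblasts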
P388/ADR = assay: cells; assay type: functional; settings: Mus musculus
SN12K1 = assay: cells; assay type: functional; settings: Homo sapiens
[10] = biological target: T1, Heat shock factor protein 1 (Mus musculus, UniProt P38532); assay: HSF1 potentiators in luciferase reporter cells, confirmation, cell-based, NIH3T3, luminescence, dose retest (AID 435004); assay type: functional;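 also: stress induced by proteasome inhibitor MG132 added 30 min after compound; luciferase reporter driven by HSF1 response element in NIH3T3 cells; actives raise luminescence as potentiators of the MG132 stress response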
T1 sequence (P38532 whole entry): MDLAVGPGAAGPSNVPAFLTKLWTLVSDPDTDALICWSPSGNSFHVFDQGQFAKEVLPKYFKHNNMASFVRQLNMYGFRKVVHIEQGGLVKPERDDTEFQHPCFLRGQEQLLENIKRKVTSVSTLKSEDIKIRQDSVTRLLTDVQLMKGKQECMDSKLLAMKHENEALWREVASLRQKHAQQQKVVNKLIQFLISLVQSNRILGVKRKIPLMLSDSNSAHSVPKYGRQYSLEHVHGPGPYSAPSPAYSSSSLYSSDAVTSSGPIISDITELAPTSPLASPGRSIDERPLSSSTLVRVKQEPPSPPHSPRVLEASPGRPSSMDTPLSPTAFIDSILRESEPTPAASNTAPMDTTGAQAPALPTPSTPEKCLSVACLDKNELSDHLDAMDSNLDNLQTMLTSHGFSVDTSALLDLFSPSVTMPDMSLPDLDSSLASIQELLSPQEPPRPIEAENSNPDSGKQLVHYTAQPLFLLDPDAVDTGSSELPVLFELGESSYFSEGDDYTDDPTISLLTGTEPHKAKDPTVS

[11] = biological target: T2, Corticotropin-releasing factor receptor 2/Corticotropin-releasing factor-binding protein (Homo sapiens, UniProt P24387+Q13324); assay: Dose Response confirmation of uHTS hits for small molecule antagonists of the CRF-binding protein and CRF-R2 receptor complex.; assay type: functional; settings: read-out: IC50_Mean
T2 sequence (Q13324 whole entry): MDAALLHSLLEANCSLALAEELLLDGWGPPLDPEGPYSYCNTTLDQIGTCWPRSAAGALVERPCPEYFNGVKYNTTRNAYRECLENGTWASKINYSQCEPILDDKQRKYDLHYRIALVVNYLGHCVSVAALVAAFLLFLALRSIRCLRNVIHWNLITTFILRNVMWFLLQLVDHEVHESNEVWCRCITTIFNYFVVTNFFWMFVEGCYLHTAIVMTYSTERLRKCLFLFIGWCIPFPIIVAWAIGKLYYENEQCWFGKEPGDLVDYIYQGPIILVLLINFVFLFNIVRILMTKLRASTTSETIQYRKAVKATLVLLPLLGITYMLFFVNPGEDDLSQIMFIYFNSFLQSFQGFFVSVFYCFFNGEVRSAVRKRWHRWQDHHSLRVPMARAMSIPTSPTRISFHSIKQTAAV
T2 sequence (P24387 whole entry): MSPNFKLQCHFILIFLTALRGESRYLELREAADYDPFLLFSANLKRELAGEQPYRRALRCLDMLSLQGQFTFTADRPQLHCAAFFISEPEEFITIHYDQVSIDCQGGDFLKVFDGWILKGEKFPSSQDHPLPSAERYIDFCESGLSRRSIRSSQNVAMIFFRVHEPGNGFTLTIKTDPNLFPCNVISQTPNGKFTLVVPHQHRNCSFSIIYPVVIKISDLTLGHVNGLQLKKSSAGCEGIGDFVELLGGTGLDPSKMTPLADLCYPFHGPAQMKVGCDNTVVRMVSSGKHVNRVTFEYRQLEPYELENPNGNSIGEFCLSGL

[12] = biological target: T2, Corticotropin-releasing factor receptor 2/Corticotropin-releasing factor-binding protein; assay: activators of CRF receptor 2 with binding protein – uHTS hits, confirmation (AID 602473); assay type: functional; settings: read-out: EC50_Mean
[13] = biological target: T3, RNA-binding protein pos-1 (Caenorhabditis elegans, UniProt G5EF15); assay: inhibitors of POS-1/mex-3 RNA binding, dose response, biochemical, fluorescence polarization (AID 1964);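 also: purified POS-1 fused to maltose binding protein made in E. coli; potency of compounds blocking POS-1 binding to fluorescent RNA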
T3 sequence (G5EF15 whole entry): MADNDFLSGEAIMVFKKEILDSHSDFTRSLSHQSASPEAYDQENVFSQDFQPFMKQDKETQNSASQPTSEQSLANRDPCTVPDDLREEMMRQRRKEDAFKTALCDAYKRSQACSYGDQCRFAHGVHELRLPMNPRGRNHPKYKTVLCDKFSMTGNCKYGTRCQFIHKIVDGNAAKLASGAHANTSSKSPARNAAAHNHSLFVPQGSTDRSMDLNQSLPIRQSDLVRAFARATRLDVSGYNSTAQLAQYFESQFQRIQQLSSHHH

[14] = biological target: T4, Zinc finger protein mex-5 (Caenorhabditis elegans, UniProt Q9XUB2); assay: MEX-5/TCR-2 RNA interaction inhibitors, dose response, biochemical, C. elegans, fluorescence polarization (AID 1960)
T4 sequence (Q9XUB2 whole entry): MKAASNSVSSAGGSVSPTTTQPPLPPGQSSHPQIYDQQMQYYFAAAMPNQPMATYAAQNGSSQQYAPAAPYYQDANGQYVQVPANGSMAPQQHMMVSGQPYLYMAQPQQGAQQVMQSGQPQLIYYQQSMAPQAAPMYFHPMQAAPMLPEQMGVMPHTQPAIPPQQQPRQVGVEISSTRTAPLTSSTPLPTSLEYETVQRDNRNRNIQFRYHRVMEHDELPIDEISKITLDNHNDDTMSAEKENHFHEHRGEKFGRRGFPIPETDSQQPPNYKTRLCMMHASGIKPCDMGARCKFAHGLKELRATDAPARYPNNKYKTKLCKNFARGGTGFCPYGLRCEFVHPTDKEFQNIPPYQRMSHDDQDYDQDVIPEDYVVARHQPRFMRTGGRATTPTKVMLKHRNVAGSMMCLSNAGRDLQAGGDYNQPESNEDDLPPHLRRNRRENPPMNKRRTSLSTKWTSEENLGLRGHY

Cytochrome P450 1A2 = biological target: T5, Cytochrome P450 1A2 (Homo sapiens, UniProt P05177);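 also: PubChem cytochrome P450 panel assay, CYP1A2 panel member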
T5 sequence (P05177 whole entry): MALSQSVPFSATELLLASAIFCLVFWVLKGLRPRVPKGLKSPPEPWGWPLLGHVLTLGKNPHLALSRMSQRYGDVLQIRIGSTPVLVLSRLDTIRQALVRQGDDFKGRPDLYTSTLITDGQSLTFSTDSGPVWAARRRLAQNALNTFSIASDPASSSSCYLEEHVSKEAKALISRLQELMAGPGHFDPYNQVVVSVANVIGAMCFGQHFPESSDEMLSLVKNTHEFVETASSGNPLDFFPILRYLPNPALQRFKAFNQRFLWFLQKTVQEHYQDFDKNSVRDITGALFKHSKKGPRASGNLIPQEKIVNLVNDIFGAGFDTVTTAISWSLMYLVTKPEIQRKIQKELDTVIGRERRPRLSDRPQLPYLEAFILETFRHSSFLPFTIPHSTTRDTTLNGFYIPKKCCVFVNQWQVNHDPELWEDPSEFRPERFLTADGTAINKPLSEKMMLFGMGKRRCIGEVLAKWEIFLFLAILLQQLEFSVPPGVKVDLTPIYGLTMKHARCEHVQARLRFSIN

BJ [15] = assay: cells; assay type: functional, cell-based; settings: Homo sapiens
[16] = cytotoxicity toward DRD oncogenic fibroblasts, dose response, cell-based, non-viral oncogenic, luminescence (AID 1934); assay type: functional; settings: Homo sapiens
BJ [17] = assay: cytotoxicity toward BJ-TERT fibroblasts, dose response, cell-based, RAS-independent, luminescence (AID 1933); assay type: functional; settings: Homo sapiens
Cytochrome P450 3A4 = Cytochrome P450 3A4 (Homo sapiens, UniProt P08684);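 also: CYP3A4 tested as one member of a cytochrome P450 panel screen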
Cytochrome P450 3A4, sequence (P08684 whole entry): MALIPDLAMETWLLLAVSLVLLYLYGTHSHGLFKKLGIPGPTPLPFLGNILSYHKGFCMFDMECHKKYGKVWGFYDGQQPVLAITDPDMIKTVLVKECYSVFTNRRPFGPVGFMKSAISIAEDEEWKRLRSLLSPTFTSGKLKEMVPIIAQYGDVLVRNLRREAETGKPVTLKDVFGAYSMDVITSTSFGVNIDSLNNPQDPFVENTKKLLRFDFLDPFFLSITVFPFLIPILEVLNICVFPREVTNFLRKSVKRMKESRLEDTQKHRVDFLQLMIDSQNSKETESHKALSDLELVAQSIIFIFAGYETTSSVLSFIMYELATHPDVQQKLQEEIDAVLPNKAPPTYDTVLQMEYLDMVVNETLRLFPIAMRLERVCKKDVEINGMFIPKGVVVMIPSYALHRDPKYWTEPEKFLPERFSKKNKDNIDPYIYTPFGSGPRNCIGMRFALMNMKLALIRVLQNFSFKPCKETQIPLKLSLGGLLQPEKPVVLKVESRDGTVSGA

Cytochrome P450 2C19 = Cytochrome P450 2C19 (Homo sapiens, UniProt P33261); assay: Cytochrome panel assay with activity outcomes. Panel member name: p450-cyp2c19 Compounds with AC50 equal or less than 10 uM are considered active; assay type: functional; settings: read-out: AC50
Cytochrome P450 2C19, sequence (P33261 whole entry): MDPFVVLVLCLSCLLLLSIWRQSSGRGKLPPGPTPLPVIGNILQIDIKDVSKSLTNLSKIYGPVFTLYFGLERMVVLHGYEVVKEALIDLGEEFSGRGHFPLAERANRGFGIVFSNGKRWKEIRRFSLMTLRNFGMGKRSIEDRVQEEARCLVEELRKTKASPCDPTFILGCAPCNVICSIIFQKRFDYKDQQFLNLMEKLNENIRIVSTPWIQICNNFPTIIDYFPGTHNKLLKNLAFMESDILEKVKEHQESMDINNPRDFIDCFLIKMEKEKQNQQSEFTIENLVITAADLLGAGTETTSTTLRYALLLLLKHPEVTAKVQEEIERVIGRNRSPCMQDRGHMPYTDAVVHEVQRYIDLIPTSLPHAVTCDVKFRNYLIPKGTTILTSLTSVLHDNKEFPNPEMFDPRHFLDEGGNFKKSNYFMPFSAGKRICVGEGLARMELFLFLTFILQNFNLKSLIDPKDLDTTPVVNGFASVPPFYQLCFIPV

SMILES: O=C(NCc1ccc(F)cc1)c1ccc(CS(=O)(=O)Cc2ccccc2F)o1
- EC50 [1]: 6.51 µM (active)
- EC50 [2]: > 150 µM (inactive)

SMILES: CCC(Oc1ccccc1)C(=O)Nc1ncc([N+](=O)[O-])s1 (centres undefined)
- EC50 [1]: 1.5 µM (active)
- EC50 [2]: > 160 µM (inactive)

- IC50 [3]: < 0.4 µM (not active)
SMILES: CC(=O)Oc1ccc(NC(=O)CSc2ccccc2)cc1

SMILES: O=[N+]([O-])c1ccc(N=Nc2c(O)[nH]c3ccc(F)cc23)cc1
- CC50 [4]: 26.1 µM (active)

SMILES: O=C(NC1CCCCC1)C(c1ccncc1)N(Cc1ccccc1)C(=O)c1ccc(-c2ccccc2)[nH]1 (centres undefined)
- CC50 [4]: 7.92 µM (active)
- EC50 [5]: 0.413 µM (active)
- EC50 [6]: > 60 µM (not active)

SMILES: Cc1ccc(S(=O)(=O)c2nc(-c3ccc(F)cc3)oc2SCC(=O)NCC2CCCO2)cc1 (centres undefined)
- EC50 [7]: 35.3 µM (active)
- EC50 [8]: 83.1 µM (active)

SMILES: O=C(COC(=O)c1c2c(nc3ccccc13)CCCC2)Nc1ccc2c(c1)OCO2
- EC50 [8]: 44.5 µM (active)

SMILES: Cc1nc2sc(C(c3cccc(F)c3)N3CCCC(C)C3)c(O)n2n1 (centres undefined)
- EC50 [1]: 1.82 µM (active)
- EC50 [2]: > 150 µM (inactive)

SMILES: Cc1ccc(S(=O)(=O)N2CCC(Oc3cccc(C(F)(F)F)c3)CC2)cc1
- CC50 [4]: 16.5 µM (active)

SMILES: CCS(=O)(=O)c1ccc2oc(SCC(=O)N3CCCCC3)nc2c1
- AC50 [9]: > 70 µM (inactive)

- GI50 (P388/ADR): > 100 µM (inactive)
SMILES: COc1cc(/C=C(\C#N)C(N)=O)cc(Br)c1O
- GI50 (SN12K1): 95.3 µM (inactive)

SMILES: O=C1NC2(CCC3(CC2)OCCO3)NN1c1ccccc1
- EC50 [1]: > 38 µM (not active)
- EC50 [2]: > 160 µM (inconclusive)

SMILES: Cc1ccc(-c2nnn(CC(=O)N(Cc3ccco3)C(C(=O)NC(C)(C)C)c3ccncc3)n2)o1 (centres undefined)
- EC50 [1]: > 38 µM (not active)
- EC50 [2]: > 150 µM (inactive)

SMILES: COc1cc(NC(=S)N2CCN(S(=O)(=O)c3ccccc3)CC2)cc(OC)c1
- EC50 [1]: > 38 µM (not active)
- EC50 [2]: > 160 µM (inconclusive)

SMILES: Cc1cccc(N2CCN(C(=O)c3cn(C)c(=O)c4c3c3ccccc3n4C)CC2)c1C
- EC50 [7]: 18.6 µM (active)
- EC50 [8]: 19.1 µM (active)

SMILES: CCCOc1cccc(C(=O)N/N=C/c2coc3ccccc3c2=O)c1
- EC50 [1]: > 38 µM (not active)
- EC50 [2]: 28.2 µM (active)

- EC50 [10]: > 260 µM (inactive)
- IC50 [11]: > 47.1 µM (inactive)
- EC50 [12]: > 53 µM (inactive)
SMILES: CCOC(=O)C1CCCN(C(=O)c2ccc(Cl)c(S(=O)(=O)N3CCCCC3)c2)C1 (centres undefined)

- IC50 [3]: 3.74 µM (active)
SMILES: Cc1cc(C(=O)N/N=C/c2ccc(O)c([N+](=O)[O-])c2)c(C)n1-c1ccc(F)cc1

SMILES: N#Cc1c(NC(=O)CSC2=NCCS2)sc2c1CCCC2
- CC50 [4]: 22.5 µM (active)

- EC50 [13]: 15.8 µM (active)
- EC50 [14]: 13.8 µM (active)
- AC50 (Cytochrome P450 1A2): 31.6 µM (inconclusive)
- IC50 [3]: 3.9 µM (active)
SMILES: COc1cc(C2C(C#N)=C(N)OC3=C2C(=O)CCC3)c([N+](=O)[O-])cc1OC (centres undefined)

- IC50 [3]: 2.4 µM (active)
SMILES: CC(=O)Nc1sc(N/N=C\c2ccc(O)cc2)nc1-c1cccs1

SMILES: COC(=O)c1ccc(Cn2cnc3c(sc4nc(N5CCOCC5)c5c(c43)CCCC5)c2=O)o1
- CC50 [4]: > 50 µM (active)

SMILES: COc1ccc(/C=C/C(=O)Oc2ccc(/C=N/NC(=O)c3ccccc3)cc2)cc1OC
- EC50 [7]: 25.8 µM (active)
- EC50 [8]: 27.7 µM (active)

SMILES: CCc1ccc(/C=C2/SC(=S)N(CCC(=O)NCCCN3CCOCC3)C2=O)cc1
- EC50 (BJ [15]): 14.5 µM (active)
- EC50 [16]: > 38 µM (not active)
- EC50 (BJ [17]): 1.32 µM (active)

SMILES: COCCOC(=O)C1=C(C)N(Cc2ccccc2)C(=O)NC1c1ccc(OC)cc1 (centres undefined)
- CC50 [4]: 23.2 µM (active)

- AC50 (Cytochrome P450 3A4): 15.8 µM (inconclusive)
- AC50 (Cytochrome P450 2C19): 11.2 µM (inconclusive)
- AC50 (Cytochrome P450 1A2): 28.2 µM (inconclusive)
SMILES: CC(C)(C)c1ccc(C2CC2C(=O)N/N=C\c2cc3ccccc3nc2Cl)cc1 (centres undefined)
- CC50 [4]: 20.1 µM (active)
